Usually EC50 stands for the concentration giving half of the maximal effect. Usually CC50 stands for the concentration that lowers cell viability or growth by half. One may read the pIC50 as −log10 of the IC50, conventionally taken in molar units. High values mean a small IC50, low ones a large IC50.

SMILES strings stand for the structures. pIC50: −log10 of the molar value. Converted amounts (≈) assume the structure as drawn. The source made the active and inactive calls. The rule behind the calls is not given here. Bounds are passed on as bounds.

One series deals with Hepatitis C virus. Description: Antiviral activity against HCV infected in human HuH5.2 assessed as inhibition of viral RNA synthesis after 4 days by Steady-Glo-luciferase assay. It is filed as functional, organism-based, Hepacivirus hominis. The settings on record: Huh-5-2, 96 h.
Series [1] is described as follows: Cytostatic activity against human HuH5.2 after 3 days by MTS/PMS assay. To be noted: HuH5.2 cells. It is filed as ADME, Huh-5-2.
The subject of a further series is Hepacivirus hominis. Description: Inhibition of HCV recombinant NS5B RNA polymerase expressed in Escherichia coli up to 100 uM by liquid scintillation counter.
Series [2] in a line: Inhibition of ATPase activity of HCV […] expressed in Escherichia coli. Details: species or system Hepacivirus hominis.
For series [3], the system named is Bovine viral diarrhea virus 1. Description: Antiviral activity against Bovine viral diarrhea virus infected in MDBK cells assessed as inhibition of virus-induced cytopathic effect after 4 to 5 days by microscopy. It is filed as functional, organism-based. The settings on record: Bovine viral diarrhea virus isolates and strains. On the technique in general: Damage to the host cells serves as the signal in cytopathic effect assays.

A short description of series [4]: Cytotoxicity against MDBK cells after 3 days by MTS/PMS method. The settings on record: cattle. It is filed as cell-based, Bos taurus.

As to `COc1cc(OC)c2c(=O)c3cc(N)c(N4CCN(c5nc6ccccc6o5)CC4)cc3n(C)c2c1`, the EC50 with Hepatitis C virus is 27 µg/mL (≈ 55.6 µM). In addition, the CC50 at 72 h in series [1] is greater than 50 µg/mL. In addition, the result with Hepacivirus hominis was inactive. This molecule showed a pIC50 in series [2] of less than 3.00.
In the case of `COc1cc(OC)c2c(=O)c3cc(N)c(Cl)cc3[nH]c2c1`, the EC50 in the series on Hepatitis C virus stood at 5.7 µg/mL (≈ 18.7 µM). The CC50 at 72 h in series [1] came out at 13 µg/mL (≈ 42.7 µM). Besides, the result in the series on Hepacivirus hominis was inactive. In addition, in series [2], the pIC50 was less than 3.00.
Turning to `Cn1c2cc(N3CCN(c4nc5ccccc5o4)CC3)c(N)cc2c(=O)c2c(O)cc(O)cc21`, the EC50 with Hepatitis C virus was 17 µg/mL (≈ 37.2 µM). This molecule also returned a CC50 at 72 h in series [1] greater than 50 µg/mL. Moreover, the result with Hepacivirus hominis was inactive. The molecule further showed a pIC50 in series [2] of less than 3.00.
Consider `COc1cc(OC)c2c(=O)c3cc(N)c(N4CCN(c5ccccn5)CC4)cc3n(CCC(C)C)c2c1`, for which, in the series on Hepatitis C virus, the EC50 came to 10 µg/mL (≈ 19.9 µM). In series [1], this molecule registered a CC50 at 72 h of 10 µg/mL (≈ 19.9 µM). Also, the outcome with Hepacivirus hominis was inactive. This molecule had a pIC50 in series [2] of less than 3.00.
With `CCOc1cc(OC)cc2c1c(=O)c1cc(N)c(N3CCN(c4ccccn4)CC3)cc1n2C`, the EC50 in the series on Hepatitis C virus amounted to 4 µg/mL (≈ 8.7 µM). Also, the CC50 at 72 h in series [1] is greater than 50 µg/mL. Moreover, in the series with Hepacivirus hominis, the result was inactive. This molecule showed a pIC50 in series [2] of less than 3.00.
As for `COc1cc(O)c2c(=O)c3cc(N)c(OC)cc3n(C)c2c1`, in the series on Hepatitis C virus, the EC50 worked out at 18 µg/mL (≈ 59.9 µM). Also, in series [1], the CC50 at 72 h is greater than 50 µg/mL. Moreover, in the series on Hepacivirus hominis, the outcome was inactive. The molecule further showed a pIC50 in series [2] of less than 3.00.
The like results for `COc1cc(OC)c2c(=O)c3cc(F)c(N4CCN(c5ccccn5)CC4)cc3n(C)c2c1` were, in that order, greater than 50 µg/mL, greater than 50 µg/mL, “inactive” and less than 3.00.
Take `COc1cc(O)c2c(=O)c3cc(N)c(Cl)cc3n(C)c2c1`: the EC50 in series [3] worked out at 0.7 µg/mL (≈ 2.3 µM); in the series with Hepatitis C virus it was 14 µg/mL (≈ 45.9 µM). The CC50 at 72 h in series [1] is 41 µg/mL (≈ 135 µM); in series [4] it was 14 µg/mL (≈ 45.9 µM). In the series on Hepacivirus hominis, the outcome was inactive. For the same molecule, in series [2], the pIC50 was less than 3.00.
Consider `CCCOc1cc(OC)cc2c1c(=O)c1cc(N)c(N3CCN(c4ccccn4)CC3)cc1n2C`, for which, in the series with Hepatitis C virus, the EC50 was 17 µg/mL (≈ 35.9 µM). The molecule further registered a CC50 at 72 h in series [1] greater than 50 µg/mL. Moreover, the result in the series on Hepacivirus hominis was inactive. Also, the pIC50 in series [2] was less than 3.00.
As to `COc1ccc2c(=O)c3cc(N)c(N4CCN(c5ccccn5)CC4)cc3n(C)c2c1`, in the series with Hepatitis C virus, the EC50 came to 0.8 µg/mL (≈ 1.93 µM). The same molecule came in with a CC50 at 72 h in series [1] of 11 µg/mL (≈ 26.5 µM). In addition, the result in the series on Hepacivirus hominis was inactive. This molecule also showed a pIC50 in series [2] of less than 3.00.
For `COc1cc(OC)c2c(=O)c3cc(N)c(OC)cc3n(C)c2c1`, the half-maximal effective concentration (EC50) in the series with Hepatitis C virus came out at 9 µg/mL (≈ 28.6 µM). The molecule further came in with a CC50 at 72 h in series [1] greater than 50 µg/mL. Moreover, in the series with Hepacivirus hominis, the result was inactive. In series [2], this molecule had a pIC50 of less than 3.00.
`COc1cc(OC)c2c(=O)c3cc(N)c(N4CCN(c5ccccc5)CC4)cc3n(C)c2c1`: in the series on Hepatitis C virus, the EC50 is 9 µg/mL (≈ 20.2 µM). In series [1], this molecule showed a CC50 at 72 h of 34 µg/mL (≈ 76.5 µM). The result in the series on Hepacivirus hominis was inactive. Besides, the pIC50 in series [2] is less than 3.00.
Taken in the same sequence, the figures for `COc1cc(OC)c2c(=O)cc(-c3ccc(N4CCN(c5ccccn5)CC4)c(N)c3)n(C)c2c1` were greater than 50 µg/mL, greater than 50 µg/mL, “inactive” and less than 3.00.
For the molecule `CCn1c2cc(Cl)c(N)cc2c(=O)c2c(OC)cc(OC)cc21`, the EC50 in the series with Hepatitis C virus was found to be 5 µg/mL (≈ 15 µM). For the same molecule, it took 14 µg/mL (≈ 42.1 µM) to reach half-maximal cytotoxicity in series [1] (CC50 at 72 h). For the same molecule, in the series with Hepacivirus hominis, the result was inactive. The pIC50 in series [2] is less than 3.00.
With `COc1ccc(C(=O)c2ccc(N3CCN(c4ccccn4)CC3)c(N)c2)c(OC)c1`, the EC50 in the series with Hepatitis C virus was 6.6 µg/mL (≈ 15.8 µM). This molecule gave a CC50 at 72 h in series [1] of 15 µg/mL (≈ 35.8 µM). In the series on Hepacivirus hominis, the outcome was inactive. Besides, in series [2], the pIC50 is less than 3.00.
Consider `CCn1c2cc(Cl)c(N)cc2c(=O)c2c(O)cc(O)cc21`, for which the EC50 in the series with Hepatitis C virus came out at 5 µg/mL (≈ 16.4 µM). Moreover, the CC50 at 72 h in series [1] was greater than 50 µg/mL. In the series with Hepacivirus hominis, the result was inactive. Besides, in series [2], the pIC50 was less than 3.00.
`COc1cc(OC)c2c(=O)c3cc(N)c(N4CCN(c5ccccn5)CC4)cc3[nH]c2c1`: in the series on Hepatitis C virus, the EC50 turned out to be 4 µg/mL (≈ 9.27 µM). The molecule further registered a CC50 at 72 h in series [1] of 19 µg/mL (≈ 44 µM). In addition, the outcome in the series on Hepacivirus hominis was inactive. For the same molecule, the pIC50 in series [2] was less than 3.00.
Turning to `COc1cc(OC)cc(N(C)c2ccc(N)c(N3CCN(c4ccccn4)CC3)c2)c1`, the EC50 in the series on Hepatitis C virus is 4.1 µg/mL (≈ 9.77 µM). For the same molecule, the midpoint of cytotoxicity in series [1], the CC50 at 72 h, lay at 7.2 µg/mL (≈ 17.2 µM). Further, the result in the series on Hepacivirus hominis was inactive. In addition, the pIC50 in series [2] was less than 3.00.
In the case of `COc1cc(OC)c2c(=O)c3cc(N)c(Cl)cc3n(CCC(C)C)c2c1`, the EC50 with Hepatitis C virus was greater than 50 µg/mL. Besides, the CC50 at 72 h in series [1] was greater than 50 µg/mL. Further, the outcome with Hepacivirus hominis was inactive. The molecule further gave a pIC50 in series [2] of less than 3.00.
With `COc1cc(O)c2c(=O)c3cc(N)c(Cl)cc3[nH]c2c1`, the EC50 in the series with Hepatitis C virus is 8 µg/mL (≈ 27.5 µM). The molecule also showed a CC50 at 72 h in series [1] greater than 50 µg/mL. Moreover, the result with Hepacivirus hominis was inactive. Besides, in series [2], the pIC50 is less than 3.00.

For the origin of these results see ChEMBL document CHEMBL1138495, “Inhibition of subgenomic hepatitis C virus RNA replication by acridone derivatives: identification of an NS3 helicase inhibitor” (J Med Chem, 2009).
